In patent publication US12570655B2, “Cysteine covalent modifiers of AKT1 and uses thereof” (Terremoto Biosciences, Inc., priority 2023, dated 2026):
Where two headings read alike, the source gives them in different places.

Experiments:
Assay type in all cases: cell-based
AKT1 E17K = biological target: T1, AKT1 E17K (Homo sapiens, UniProt P31749, E17K); test: Live cell AKT1 E17K target engagement by NanoBRET competitive probe displacement; settings: HEK293 cells transfected with kinase-NanoLuciferase fusion, 2 h at 37° C.
T1 construct: expressed in transfected cells; host or cells: HEK293
T1 sequence (P31749 whole entry E17K, the tested form may be a part): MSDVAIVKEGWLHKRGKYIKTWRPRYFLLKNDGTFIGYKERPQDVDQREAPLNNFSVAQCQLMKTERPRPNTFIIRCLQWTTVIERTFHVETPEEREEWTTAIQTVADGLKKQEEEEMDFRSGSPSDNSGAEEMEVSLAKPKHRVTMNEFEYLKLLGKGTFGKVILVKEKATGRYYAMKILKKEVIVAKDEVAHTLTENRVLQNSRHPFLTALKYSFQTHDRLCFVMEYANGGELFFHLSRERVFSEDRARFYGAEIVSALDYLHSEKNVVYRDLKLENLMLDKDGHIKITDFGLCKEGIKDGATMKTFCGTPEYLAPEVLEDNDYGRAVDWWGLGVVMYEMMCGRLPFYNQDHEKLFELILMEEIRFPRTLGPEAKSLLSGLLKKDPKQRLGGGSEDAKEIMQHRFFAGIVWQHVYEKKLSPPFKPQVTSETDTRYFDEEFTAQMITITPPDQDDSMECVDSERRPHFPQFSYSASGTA
Procedure, shortened: (§1)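 NanoLuc-kinase fusions, HEK293, transfected overnight; compound serial dilution + ATP-competitive fluorescent tracer at ~EC50; 2 h, 37 °C. Read 460/600 nm with extracellular NanoLuc inhibitor; BRET = E600/E460; IC50 by Hill fit.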

AKT1 WT = biological target: T2, AKT1 WT (Homo sapiens, UniProt P31749); test: Live cell AKT1 WT target engagement by NanoBRET competitive probe displacement; settings: HEK293 cells transfected with kinase-NanoLuciferase fusion, 2 h at 37° C.
T2 construct: expressed in transfected cells; host or cells: HEK293
T2 sequence (P31749 whole entry, the tested form may be a part): as the sequence (P31749 whole entry E17K, the tested form may be a part) above, with K17E counted along it
Procedure, shortened: as §1

AKT2 = biological target: T3, AKT2 (Homo sapiens, UniProt P31751); test: Live cell AKT2 target engagement by NanoBRET competitive probe displacement; settings: HEK293 cells transfected with kinase-NanoLuciferase fusion, 2 h at 37° C.
T3 construct: expressed in transfected cells; host or cells: HEK293
T3 sequence (P31751 whole entry, the tested form may be a part): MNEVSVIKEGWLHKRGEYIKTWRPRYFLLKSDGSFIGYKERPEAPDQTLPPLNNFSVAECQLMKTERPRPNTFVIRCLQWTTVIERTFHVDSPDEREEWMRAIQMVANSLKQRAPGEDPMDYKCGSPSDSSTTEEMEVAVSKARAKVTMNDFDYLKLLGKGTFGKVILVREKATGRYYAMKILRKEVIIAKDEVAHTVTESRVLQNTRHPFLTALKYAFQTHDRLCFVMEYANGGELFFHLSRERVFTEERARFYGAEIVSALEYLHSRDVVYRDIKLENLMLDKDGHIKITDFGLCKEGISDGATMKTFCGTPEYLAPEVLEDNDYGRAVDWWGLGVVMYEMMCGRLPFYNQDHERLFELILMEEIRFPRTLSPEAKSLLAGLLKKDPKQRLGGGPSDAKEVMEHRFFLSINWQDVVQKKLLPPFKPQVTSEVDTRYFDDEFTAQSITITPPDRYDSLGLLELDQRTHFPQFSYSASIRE
Procedure, shortened: as §1

[1] = system: LAPC4 prostate cancer cells; test: Antiproliferative effects in LAPC4 cells (CellTiter Glo); settings: LAPC4 cells (AKT1 E17K allele), read-out: LAPC4 proliferation IC50
Procedure, shortened: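 Luminescent ATP read-out (CellTiter Glo) after 72 h compound exposure; 1,000 cells/well in IMDM + 12% FBS + 1% P/S. IC50 by Hill equation fit of luminescence vs. log(inhibitor).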

Row | SMILES | IC50 (AKT1 E17K) [nM] | IC50 (AKT1 WT) [nM] | IC50 (AKT2) [nM] | IC50 ([1]; 72 h) [nM] | IC50 ([1]; Homo sapiens, LAPC4, 72 h) [nM]
1 | C=CC(=O)N1CCC(N[C@H]2CCc3cc(-n4c(-c5cccnc5N)nc5ccc(-n6nccn6)nc54)ccc32)C[C@H]1C (single isomer, unassigned) [Example 262, 1-[(2R,4*)-4-{[(1S)-5-[2-(2-aminopyridin-3-yl)-5-(1,2,3-triazol-2-yl)imidazo[4,5-b]pyridin-3-yl]-2,3-dihydro-1H-inden-1-yl]amino}-2-methylpiperidin-1-yl]prop-2-en-1-one] | 29.6 | 650 | 45.9 | 83.7 | –
2 | C=CC(=O)N1CCC(N[C@@H]2c3ccc(-n4c(-c5cccnc5N)nc5ccc(-n6ccc(F)n6)nc54)cc3CC2F)C[C@@H]1C (single isomer, unassigned) [Example 270, 1-((2S,4*)-4-(((1R,2*)-5-(2-(2-aminopyridin-3-yl)-5-(3-fluoro-1H-pyrazol-1-yl)-3H-imidazo[4,5-b]pyridin-3-yl)-2-fluoro-2,3-dihydro-1H-inden-1-yl)amino)-2-methylpiperidin-1-yl)prop-2-en-1-one] | 7.21 | 162 | 21 | 76.3 | –
3 | C=CC(=O)N1CCC(N[C@@H]2c3ccc(-n4c(-c5cccnc5N)nc5ccc(-n6ccc(F)n6)nc54)cc3CC2F)C[C@@H]1C (single isomer, unassigned) [Example 271, 1-((2S,4*)-4-(((1R,2*)-5-(2-(2-aminopyridin-3-yl)-5-(3-fluoro-1H-pyrazol-1-yl)-3H-imidazo[4,5-b]pyridin-3-yl)-2-fluoro-2,3-dihydro-1H-inden-1-yl)amino)-2-methylpiperidin-1-yl)prop-2-en-1-one] | 21.7 | 928 | 248 | 674 | –
4 | C=CC(=O)N1CCC(N[C@@H]2c3ccc(-n4c(-c5cccnc5N)nc5ccc(-n6ccc(F)n6)nc54)cc3CC2F)C[C@@H]1C (single isomer, unassigned) [Example 272, 1-((2S,4*)-4-(((1R,2*)-5-(2-(2-aminopyridin-3-yl)-5-(3-fluoro-1H-pyrazol-1-yl)-3H-imidazo[4,5-b]pyridin-3-yl)-2-fluoro-2,3-dihydro-1H-inden-1-yl)amino)-2-methylpiperidin-1-yl)prop-2-en-1-one] | 23.6 | 1240 | 92.1 | 351 | –
5 | C=CC(=O)N1CCC(N[C@@H]2c3ccc(-n4c(-c5cccnc5N)nc5ccc(-n6ccc(F)n6)nc54)cc3CC2F)C[C@@H]1C (single isomer, unassigned) [Example 273, 1-((2S,4*)-4-(((1R,2*)-5-(2-(2-aminopyridin-3-yl)-5-(3-fluoro-1H-pyrazol-1-yl)-3H-imidazo[4,5-b]pyridin-3-yl)-2-fluoro-2,3-dihydro-1H-inden-1-yl)amino)-2-methylpiperidin-1-yl)prop-2-en-1-one] | 11.5 | 157 | 27.9 | 134 | –
6 | C=CC(=O)N1CCC(N[C@@H]2c3ccc(-n4c(-c5cccnc5N)nc5ccc(-n6ccc(F)n6)nc54)cc3CC2F)C[C@H]1C (single isomer, unassigned) [Example 274, 1-((2R,4*)-4-(((1R,2*)-5-(2-(2-aminopyridin-3-yl)-5-(3-fluoro-1H-pyrazol-1-yl)-3H-imidazo[4,5-b]pyridin-3-yl)-2-fluoro-2,3-dihydro-1H-inden-1-yl)amino)-2-methylpiperidin-1-yl)prop-2-en-1-one] | 18.8 | 696 | 94.4 | 323 | –
7 | C=CC(=O)N1CCC(N[C@@H]2c3ccc(-n4c(-c5cccnc5N)nc5ccc(-n6ccc(F)n6)nc54)cc3CC2F)C[C@H]1C (single isomer, unassigned) [Example 275, 1-((2R,4*)-4-(((1R,2*)-5-(2-(2-aminopyridin-3-yl)-5-(3-fluoro-1H-pyrazol-1-yl)-3H-imidazo[4,5-b]pyridin-3-yl)-2-fluoro-2,3-dihydro-1H-inden-1-yl)amino)-2-methylpiperidin-1-yl)prop-2-en-1-one] | 84 | 2620 | 81.9 | 326 | –
8 | C=CC(=O)N1CCC(N[C@@H]2c3ccc(-n4c(-c5cccnc5N)nc5ccc(-n6ccc(F)n6)nc54)cc3CC2F)C[C@H]1C (single isomer, unassigned) [Example 276, 1-((2R,4*)-4-(((1R,2*)-5-(2-(2-aminopyridin-3-yl)-5-(3-fluoro-1H-pyrazol-1-yl)-3H-imidazo[4,5-b]pyridin-3-yl)-2-fluoro-2,3-dihydro-1H-inden-1-yl)amino)-2-methylpiperidin-1-yl)prop-2-en-1-one] | 30.7 | 1350 | 106 | 378 | –
9 | C=CC(=O)N1CCC(N[C@@H]2c3ccc(-n4c(-c5cccnc5N)nc5ccc(-n6ccc(F)n6)nc54)cc3CC2F)C[C@H]1C (single isomer, unassigned) [Example 277, 1-((2R,4*)-4-(((1R,2*)-5-(2-(2-aminopyridin-3-yl)-5-(3-fluoro-1H-pyrazol-1-yl)-3H-imidazo[4,5-b]pyridin-3-yl)-2-fluoro-2,3-dihydro-1H-inden-1-yl)amino)-2-methylpiperidin-1-yl)prop-2-en-1-one] | 23.3 | 821 | 54.6 | 138 | –
10 | C=CC(=O)N1CCC(N[C@@H]2c3ccc(-n4c(-c5cccnc5N)nc5ccc(-n6ccc(OC)n6)nc54)cc3CC2F)CC1 (single isomer, unassigned) [Example 286, 1-(4-(((1R,2*)-5-(2-(2-aminopyridin-3-yl)-5-(3-methoxy-1H-pyrazol-1-yl)-3H-imidazo[4,5-b]pyridin-3-yl)-2-fluoro-2,3-dihydro-1H-inden-1-yl)amino)piperidin-1-yl)prop-2-en-1-one] | 10.7 | 273 | 36.3 | – | 124
11 | C=CC(=O)N1CCC(N[C@@H]2c3ccc(-n4c(-c5cccnc5N)nc5ccc(-n6ccc(OC)n6)nc54)cc3CC2F)CC1 (single isomer, unassigned) [Example 287, 1-(4-(((1R,2*)-5-(2-(2-aminopyridin-3-yl)-5-(3-methoxy-1H-pyrazol-1-yl)-3H-imidazo[4,5-b]pyridin-3-yl)-2-fluoro-2,3-dihydro-1H-inden-1-yl)amino)piperidin-1-yl)prop-2-en-1-one] | 7.68 | 227 | 41.8 | 110 | –
12 | C=CC(=O)N1CCC(N[C@@H]2c3ccc(-n4c(-c5cccnc5N)nc5ccc(-n6cccn6)nc54)cc3CC2F)C(C)C1 (single isomer, unassigned) [Example 288, 1-[(3*,4*)-4-{[(1R,2*)-5-[2-(2-aminopyridin-3-yl)-5-(pyrazol-1-yl)imidazo[4,5-b]pyridin-3-yl]-2-fluoro-2,3-dihydro-1H-inden-1-yl]amino}-3-methylpiperidin-1-yl]prop-2-en-1-one] | 38 | 2090 | 212 | 1530 | –
13 | C=CC(=O)N1CCC(N[C@@H]2c3ccc(-n4c(-c5cccnc5N)nc5ccc(-n6cccn6)nc54)cc3CC2F)C(C)C1 (single isomer, unassigned) [Example 289, 1-[(3*,4*)-4-{[(1R,2*)-5-[2-(2-aminopyridin-3-yl)-5-(pyrazol-1-yl)imidazo[4,5-b]pyridin-3-yl]-2-fluoro-2,3-dihydro-1H-inden-1-yl]amino}-3-methylpiperidin-1-yl]prop-2-en-1-one] | 19.6 | 799 | 145 | 682 | –
